# Source: ChEMBL document CHEMBL4177563, “The medicinal chemistry of Chikungunya virus” (Bioorg Med Chem, 2017)
# Key:
# Chikungunya virus [1] = assay: Antiviral activity against Chikungunya virus 899 infected in African green monkey Vero-A cells assessed as inhibition of viral-induced cytopathic effect measured on day 7 post infection by MTS/PMS assay; format: functional, organism-based; conditions: Chikungunya virus, 899, 168 h
# [2] = Selectivity index, ratio of CC50 for African green monkey Vero cells to IC50 for Chikungunya virus DRDE-06; format: toxicity; conditions: read-out: Ratio CC50/IC50
# Chikungunya virus [3] = assay: Antiviral activity against Chikungunya virus isolate DRDE-06 infected in African green monkey Vero cells by neutral red dye uptake assay; format: functional, organism-based; conditions: isolate DRDE-06, Vero
# [4] = Cytotoxicity against African green monkey Vero cells by neutral red dye uptake assay; format: cell-based; conditions: chlorocebus sabaeus
# Aedes aegypti [5] = assay: Larvicidal activity against Aedes aegypti Paea assessed as mortality at 35 ug/ml after 24 hrs relative to control; format: functional
# Aedes aegypti [6] = assay: Larvicidal activity against Aedes aegypti Paea assessed as mortality at 28 ug/ml after 24 hrs relative to control; format: functional
# Aedes aegypti [7] = assay: Larvicidal activity against Aedes aegypti Paea assessed as mortality after 24 hrs; format: functional, organism-based
# Aedes aegypti [8] = assay: Larvicidal activity against Aedes aegypti Paea assessed as mortality at 21 ug/ml after 24 hrs relative to control; format: functional
# Aedes aegypti [9] = assay: Larvicidal activity against Aedes aegypti Paea assessed as mortality at 7 ug/ml after 24 hrs relative to control; format: functional
# Aedes aegypti [10] = assay: Larvicidal activity against Aedes aegypti Paea assessed as mortality at 14 ug/ml after 24 hrs relative to control; format: functional
# Aedes aegypti [11] = assay: Induction of oviposition deterrent activity in Aedes aegypti assessed as effective repellency at 60 ug/ml after 24 hrs by stereomicroscopic analysis relative to control; format: functional
# Aedes aegypti [12] = assay: Induction of oviposition deterrent activity in Aedes aegypti assessed as effective repellency at 45 ug/ml after 24 hrs by stereomicroscopic analysis relative to control; format: functional
# Aedes aegypti [13] = assay: Induction of oviposition deterrent activity in Aedes aegypti assessed as effective repellency at 75 ug/ml after 24 hrs by stereomicroscopic analysis relative to control; format: functional
# Aedes aegypti [14] = assay: Induction of oviposition deterrent activity in Aedes aegypti assessed as effective repellency at 30 ug/ml after 24 hrs by stereomicroscopic analysis relative to control; format: functional
# Aedes aegypti [15] = assay: Induction of oviposition deterrent activity in Aedes aegypti assessed as effective repellency at 15 ug/ml after 24 hrs by stereomicroscopic analysis relative to control; format: functional
# Chikungunya virus [16] = assay: Antiviral activity against Chikungunya virus LR2006 OPY1 infected in human MRC5 cells after 48 hrs by indirect immunofluorescence analysis; format: functional, organism-based; conditions: LR2006 OPY1, MRC5, 48 h
# Chikungunya virus [17] = assay: Antiviral activity against Chikungunya virus KC969208 infected in African green monkey Vero cells after 48 hrs by MTT dye-based assay; format: functional, organism-based
# Chikungunya virus [18] = assay: Antiviral activity against Chikungunya virus KC969207 infected in African green monkey Vero cells after 48 hrs by MTT dye-based assay; format: functional, organism-based
# [19] = Selectivity index, ratio of CC50 for African green monkey Vero cells to IC50 for Chikungunya virus KC969207; format: toxicity; conditions: read-out: Ratio CC50/IC50
# [20] = Cytotoxicity against African green monkey Vero cells assessed as reduction in cell viability after 4 days by MTT assay; format: cell-based; conditions: chlorocebus sabaeus
# [21] = Selectivity index, ratio of CC50 for African green monkey Vero cells to IC50 for Chikungunya virus KC969208; format: toxicity; conditions: read-out: Ratio CC50/IC50
# Chikungunya virus [22] = assay: Antiviral activity against Chikungunya virus 899 infected in African green monkey Vero A cells assessed as reduction in viral infectious progeny by end-point titration assay; format: functional, organism-based; conditions: Chikungunya virus, 899, Vero
# Chikungunya virus [23] = assay: Antiviral activity against Chikungunya virus 899 infected in African green monkey Vero A cells assessed as inhibition of virus-induced cytopathogenic effect measured on day 5 post infection by MTS/PMS based microscopic analysis; format: functional, organism-based; conditions: Chikungunya virus, 899, Vero, 120 h
# Chikungunya virus [24] = assay: Antiviral activity against Chikungunya virus 899 infected in African green monkey Vero A cells by real-time qRT-PCR analysis; format: functional, organism-based; conditions: Chikungunya virus, 899, Vero
# [25] = Cytotoxicity against African green monkey Vero A cells assessed as reduction in cell viability measured on day 5 post infection by MTS/PMS based microscopic analysis; conditions: chlorocebus sabaeus
# Chikungunya virus [26] = assay: Antiviral activity against Chikungunya virus LR2006-OPY1 infected in African green monkey Vero-A cells assessed as inhibition of viral-induced cytopathic effect measured on day 7 post infection by MTS/PMS assay; format: functional, organism-based; conditions: LR2006-OPY1, 168 h
# Chikungunya virus [27] = assay: Antiviral activity against Chikungunya virus venturini isolate (Italy 2008) infected in African green monkey Vero-A cells assessed as inhibition of viral-induced cytopathic effect measured on day 7 post infection by MTS/PMS assay; format: functional, organism-based; conditions: 168 h
# Chikungunya virus [28] = assay: Antiviral activity against Chikungunya virus 0810bTw infected in BHK-21 cells by RT-qPCR analysis; format: functional, organism-based
# [29] = Selectivity index, ratio of CC50 for BHK-21 cells to EC50 for Chikungunya virus 0810bTw; format: toxicity; conditions: hamster, read-out: Ratio CC50/EC50
# Chikungunya virus [30] = assay: Antiviral activity against Chikungunya virus infected in BHK-21 cells by RT-qPCR analysis; format: functional, organism-based
# [31] = Selectivity index, ratio of CC50 for BHK-21 cells to EC50 for Chikungunya virus; format: toxicity; conditions: hamster, read-out: Ratio CC50/EC50
# Chikungunya virus [32] = assay: Antiviral activity against Chikungunya virus infected in human U2OS cells by RT-qPCR analysis; format: functional, organism-based
# [33] = Selectivity index, ratio of CC50 for BHK-21 cells to EC50 for Chikungunya virus 0611aTw; format: toxicity; conditions: hamster, read-out: Ratio CC50/EC50
# Chikungunya virus [34] = assay: Antiviral activity against Chikungunya virus 0611aTw infected in BHK-21 cells by RT-qPCR analysis; format: functional, organism-based
# [35] = Cytotoxicity against BHK21 cells assessed as reduction in cell viability after 16 hrs by CCK-8 assay; format: cell-based, Mesocricetus auratus; conditions: hamster, BHK-21 cells
# [36] = Cytotoxicity against human U2OS cells assessed as reduction in cell viability after 16 hrs by CCK-8 assay; format: cell-based
# [37] = Selectivity index, ratio of CC50 for human U2OS cells to EC50 for Chikungunya virus; format: toxicity; conditions: read-out: Ratio CC50/EC50
# [38] = Cytotoxicity against human Huh7.5 cells in presence of ATP by Celltiter-Glo assay; format: cell-based
# [39] = Selectivity index, ratio of CC50 for BHK21 cells to EC50 for Chikungunya virus; format: toxicity; conditions: hamster, BHK-21 cells; read-out: Ratio CC50/EC50
# [40] = Cytotoxicity against BHK21 cells in presence of ATP by Celltiter-Glo assay; format: cell-based, Mesocricetus auratus; conditions: hamster, BHK-21 cells
# Chikungunya virus [41] = assay: Antiviral activity against Chikungunya virus LR2006-OPY1 infected in BHK21 cells after 48 hrs by luciferase reporter gene assay; format: functional, organism-based; conditions: LR2006-OPY1, BHK-21, 48 h
# Chikungunya virus [42] = assay: Antiviral activity against Chikungunya virus LR2006-OPY1 infected in human Huh7.5 cells after 48 hrs by luciferase reporter gene assay; format: functional, organism-based; conditions: LR2006-OPY1, Huh7.5, 48 h
# [43] = Selectivity index, ratio of CC50 for human Huh7.5 cells to EC50 for Chikungunya virus; format: toxicity; conditions: read-out: Ratio CC50/EC50
# Chikungunya virus [44] = assay: Antiviral activity against Chikungunya virus at 0.006 to 300 uM by cell based luciferase reporter gene assay relative to control; format: functional
compound,measurement,setting,value
NC(=O)c1nccnc1O,EC50,Chikungunya virus [1],7 µM
COc1c(C)c2c(c(O)c1C/C=C(\C)CCC(=O)O)C(=O)OC2 [MYCOPHENOLIC ACID],selectivity ratio,[2],300
same,IC50,Chikungunya virus [3],0.1 µM
same,CC50,[4],30 µM
CC(C)=CCCC(C)[C@@]1(O)CC=C(C)CC1 (some centres undefined),Activity,Aedes aegypti [5],98.1%
same,Activity,Aedes aegypti [6],84.7%
same,IC50,Aedes aegypti [7],15.8 µg/mL
same,IC90,Aedes aegypti [7],30.3 µg/mL
same,Activity,Aedes aegypti [8],63.2%
same,Activity,Aedes aegypti [9],24.8%
same,Activity,Aedes aegypti [10],42.6%
same,Activity,Aedes aegypti [11],85.45%
same,Activity,Aedes aegypti [12],81.13%
same,Activity,Aedes aegypti [13],88.99%
same,Activity,Aedes aegypti [14],77.03%
same,Activity,Aedes aegypti [15],72.3%
CCOC(=O)c1c(CS(=O)(=O)c2ccccc2)n(C)c2cc(Br)c(O)c(CN(C)C)c12,IC50,Chikungunya virus [16],> 56.4 µM
CC(C)CCCC(C)CCCC(C)CCCC(C)CCO (centres undefined),IC50,Chikungunya virus [17],112 µM
same,IC50,Chikungunya virus [18],1.66 µM
same,selectivity ratio,[19],156
same,CC50 at 96 h,[20],259 µM
same,selectivity ratio,[21],2.11
CCCCCCCC(=O)O[C@H]1/C(=C/C(=O)OC)C[C@H]2C[C@H](CC(=O)OC)OC(=O)CCOc3ccccc3C(=O)OCC(C)(C)[C@]1(O)O2,EC50,Chikungunya virus [22],4.5 µM
same,EC50,Chikungunya virus [23],8 µM
same,EC50,Chikungunya virus [24],4.6 µM
same,CC50 at 5 days,[25],> 50 µM
NC(=O)c1nc(F)cnc1O [FAVIPIRAVIR],EC50,Chikungunya virus [1],25 µM
same,EC50,Chikungunya virus [26],25 µM
same,EC50,Chikungunya virus [27],16 µM
O=C(Nc1ccc([N+](=O)[O-])cc1Cl)c1cc(Cl)ccc1O [NICLOSAMIDE],EC50,Chikungunya virus [28],0.9 µM
same,selectivity ratio,[29],> 22.2
same,EC50,Chikungunya virus [30],0.95 µM
same,selectivity ratio,[31],> 21
same,EC50,Chikungunya virus [32],0.36 µM
same,selectivity ratio,[33],> 23.5
same,EC50,Chikungunya virus [34],0.85 µM
same,CC50 at 16 h,[35],> 20 µM
same,CC50 at 16 h,[36],> 20 µM
same,selectivity ratio,[37],> 55.5
COc1ccc2cc3[n+](cc2c1OC)CCc1cc2c(cc1-3)OCO2 [BERBERINE],CC50,[38],> 100 µM
same,selectivity ratio,[39],> 55.6
same,CC50,[40],> 100 µM
same,EC50,Chikungunya virus [41],1.8 µM
same,EC50,Chikungunya virus [42],1.9 µM
same,selectivity ratio,[43],> 52.6
same,Activity,Chikungunya virus [44],>85%
CCCCCCCC(=O)O[C@H]1/C(=C/C(=O)OC)C[C@H]2C[C@H](COC)OC(=O)CCOc3ccccc3C(=O)OCC(C)(C)[C@]1(O)O2,EC50,Chikungunya virus [22],4.1 µM
same,EC50,Chikungunya virus [23],7.5 µM
same,EC50,Chikungunya virus [24],6 µM
same,CC50 at 5 days,[25],> 50 µM
CCCCOC(=O)c1ccccc1C(=O)O,IC50,Chikungunya virus [17],28.6 µM
same,IC50,Chikungunya virus [18],2.49 µM
same,selectivity ratio,[19],136
same,CC50 at 96 h,[20],340 µM
same,selectivity ratio,[21],11.9
CCCCCCCC(=O)O[C@H]1/C(=C/C(=O)OC)C[C@H]2C[C@H](CC(=O)OC)OC(=O)CCOc3ccc(-c4c(OC)cccc4OC)cc3C(=O)OCC(C)(C)[C@]1(O)O2,EC50,Chikungunya virus [22],2 µM
same,EC50,Chikungunya virus [23],4 µM
same,EC50,Chikungunya virus [24],2.1 µM
same,CC50 at 5 days,[25],> 50 µM
